According to BindingDB's records for doi:10.1021/jm000275p (Merck Research Laboratories, 2001):

Experiments:
[1] = biological target: Gonadotropin-releasing hormone receptor (Macaca mulatta); experiment: In vitro inhibition of gonadotropin-releasing hormone receptor in rhesus monkey
[2] = biological target: Gonadotropin-releasing hormone receptor (Canis familiaris); experiment: In vitro inhibition of binding to gonadotropin-releasing hormone receptor in dog
[3] = biological target: Gonadotropin-releasing hormone receptor (Macaca mulatta); experiment: Functional antagonism at the rhesus monkey gonadotropin-releasing hormone receptor
[4] = biological target: Gonadotropin-releasing hormone receptor (Canis familiaris); experiment: Functional antagonism at gonadotropin-releasing hormone receptor in dog (PI turnover)

Cc1cc(-c2c(OCC[C@@H]3CCN3)c3cc(C(=O)Nc4ccncn4)c(Cl)cc3[nH]c2=O)cc(C)c1C [4-(2-Azetidin-2-yl-ethoxy)-7-chloro-2-oxo-3-(3,4,5-trimethyl-phenyl)-1,2-dihydro-quinoline-6-carboxylic acid pyrimidin-4-ylamide]
IC50 [1]: 0.5 nM
IC50 [2]: 60 nM
IC50 [3]: 7 nM
IC50 [4]: 350 nM
